Laboratory results as given in US8324390B2, “Tetrazole-substituted anthranilamides as pesticides” (Bayer CropScience AG, priority 2008, dated 2012).
Read-outs that look alike come from different tables or passages of the source.

Columns and labels:
[1] = log P determination by HPLC (EEC Directive 79/831 Annex V.A8); format: physicochemical
Protocol: The measurements were carried out using an Agilent 1100 LC system with a 50*4.6 Zorbax Eclipse C18 1.8 μm column (oven temperature 55° C., flow rate 2.0 ml/min).
The following mobile phases were used:
Mobile phase A: acetonitrile+1000 μl of formic acid/l
Mobile phase B: Millipore water+900 μl of formic acid/l

[2] = test system: caterpillars of the armyworm (Spodoptera frugiperda); test: Spodoptera frugiperda test (SPODFR spray treatment); format: in vivo; conditions: Spodoptera frugiperda, foliar, read-out: effect in % (caterpillars killed)
Source text: (§1) Solvent: 78.0 parts by weight of acetone

[3] = test system: green peach aphid (Myzus persicae); test: Myzus test (MYZUPE spray treatment); format: in vivo; conditions: Myzus persicae, foliar, read-out: effect in % (aphids killed)
Source text: Solvent: 78 parts by weight of acetone
as §1

[4] = test system: larvae of the mustard beetle (Phaedon cochleariae); test: Phaedon test (PHAECO spray treatment); conditions: Phaedon cochleariae, in Brassica rapa, foliar, read-out: effect in % (beetle larvae killed)
[5] = reversed-phase HPLC, Zorbax Eclipse C18 column, by HPLC according to EEC Directive 79/831 Annex V.A8, read-out: log P
[6] = application rate 100 g/ha, maize leaf discs
[7] = application rate 100 g/ha, Chinese cabbage leaf discs
[8] = reversed-phase HPLC, Zorbax Eclipse C18 column, determined by HPLC according to EEC Directive 79/831 Annex V.A8, read-out: log P

| chromatographic logP [1, 5] | chromatographic logP [1, 8] | SMILES | chromatographic logP ([1]; log P) | pest or weed control at 100 g/ha ([2]; in Zea mays) | pest or weed control at 100 g/ha ([3]; in Brassica rapa) | pest or weed control at 100 g/ha [4] | pest or weed control at 100 g/ha [2, 6] | pest or weed control at 100 g/ha [3, 7] | chromatographic logP ([1]; by HPLC according to EEC Directive 79/831 Annex V.A8, read-out: log P) |
| --- | --- | --- | --- | --- | --- | --- | --- | --- | --- |
|  |  | Cc1cc(F)cc(C(=O)NC(C)(C)C)c1NC(=O)c1cc(Cn2nnc(C(F)(F)C(F)(F)F)n2)nn1-c1ncccc1Cl [Example 221] | 3.88 | ≥ 80% | ≥ 80% | ≥ 80% |  |  |  |
|  |  | Cc1cc(Br)cc(C(=O)NC2CC2)c1NC(=O)c1cc(Cn2nnc(C(F)(F)F)n2)nn1-c1ncccc1Cl [Example 26] | 3.3 | ≥ 80% | ≥ 80% | ≥ 80% |  |  |  |
| 3.48 |  | CNC(=O)c1cc(C#N)cc(C)c1NC(=O)c1cc(Cn2nnc(C(F)(F)F)n2)nn1-c1cc(Cl)ccc1Cl [Example 317] |  |  |  | ≥ 80% | ≥ 80% | ≥ 80% |  |
|  | 2.28 | Cc1cc(C#N)cc(C(N)=O)c1NC(=O)c1cc(Cn2nnnc2C(F)(F)F)nn1-c1ncccc1Br [Example 479] |  |  |  | ≥ 80% | ≥ 80% | ≥ 80% |  |
|  | 3.01 | CCNC(=O)c1cc(C#N)cc(C)c1NC(=O)c1cc(Cn2nnnc2C(F)(F)F)nn1-c1ccccc1Cl [Example 492] |  |  |  | ≥ 80% | ≥ 80% | ≥ 80% |  |
|  |  | CSC[C@H](C)NC(=O)c1cc(I)cc(C)c1NC(=O)c1cc(Cn2nnc(C(F)(F)F)n2)nn1-c1ncccc1Cl [Example 74] | 3.9 | ≥ 80% | ≥ 80% | ≥ 80% |  |  |  |
|  |  | NC(=O)c1cc(Cl)cc(Cl)c1NC(=O)c1cc(Cn2nnc(C(F)F)n2)nn1-c1ncccc1Cl [Example 305] | 2.31 | ≥ 80% | ≥ 80% | ≥ 80% |  |  |  |
|  |  | CNC(=O)c1cc(F)cc(C)c1NC(=O)c1cc(Cn2nnc(C(F)(F)F)n2)nn1-c1ncccc1Cl [Example 29] | 2.66 | ≥ 80% | ≥ 80% | ≥ 80% |  |  |  |
|  |  | Cc1cc(I)cc(C(=O)NC2CC2)c1NC(=O)c1cc(Cn2nnnc2C(F)(F)F)nn1-c1ncccc1Cl [Example 174] | 3.12 | ≥ 80% | ≥ 80% | ≥ 80% |  |  |  |
|  |  | Cc1cc(C#N)cc(C(=O)NCC2CC2)c1NC(=O)c1cc(Cn2nnc(C(F)F)n2)nn1-c1ncccc1Cl [Example 269] | 2.66 | ≥ 80% | ≥ 80% | ≥ 80% |  |  |  |
|  |  | Cc1cc(Cl)cc(C(=O)NC(C)(C)C)c1NC(=O)c1cc(Cn2nnc(C(F)(F)F)n2)nn1-c1ncccc1Cl [Example 544] | 3.85 | ≥ 80% | ≥ 80% | ≥ 80% |  |  |  |
|  |  | Cc1cc(Cl)cc(C(=O)NC(C)C)c1NC(=O)c1cc(Cn2nnnc2C(F)(F)C(F)(F)F)nn1-c1ncccc1Cl [Example 201] | 3.59 | ≥ 80% | ≥ 80% | ≥ 80% |  |  |  |
|  | 2.91 | CNC(=O)c1cc(I)cc(C)c1NC(=O)c1cc(Cn2nnnc2C(F)(F)F)nn1-c1ncccc1Br [Example 506] |  |  |  | ≥ 80% | ≥ 80% | ≥ 80% |  |
|  |  | Cc1cc(C#N)cc(C(=O)NCC#N)c1NC(=O)c1cc(Cn2nnc(C(F)F)n2)nn1-c1ncccc1Cl [Example 271] | 2.19 | ≥ 80% | ≥ 80% | ≥ 80% |  |  |  |
|  |  | Cc1cc(Br)cc(C(=O)NC2CC2)c1NC(=O)c1cc(Cn2nnnc2C(F)(F)F)nn1-c1ncccc1Cl [Example 181] | 2.99 | ≥ 80% | ≥ 80% | ≥ 80% |  |  |  |
|  |  | Cc1cc(C#N)cc(C(=O)NOCC2CC2)c1NC(=O)c1cc(Cn2nnc(C(F)(F)F)n2)nn1-c1ncccc1Cl [Example 397] | 2.96 | ≥ 80% | ≥ 80% | ≥ 80% |  |  |  |
|  |  | Cc1cc(Cl)cc(C(=O)NC(C)(C)C)c1NC(=O)c1cc(C(C)n2nnnc2C(F)(F)F)nn1-c1ncccc1Cl (stereo not shown) [Example 511] | 3.75 | ≥ 80% | ≥ 80% | ≥ 80% |  |  |  |

| chromatographic logP [1, 5] | chromatographic logP [1, 8] | SMILES | chromatographic logP ([1]; log P) | pest or weed control at 100 g/ha ([2]; in Zea mays) | pest or weed control at 100 g/ha ([3]; in Brassica rapa) | pest or weed control at 100 g/ha [4] | pest or weed control at 100 g/ha [2, 6] | pest or weed control at 100 g/ha [3, 7] | chromatographic logP ([1]; by HPLC according to EEC Directive 79/831 Annex V.A8, read-out: log P) |
| --- | --- | --- | --- | --- | --- | --- | --- | --- | --- |
| 2.82 |  | Cc1cc(Br)cc(C(N)=O)c1NC(=O)c1cc(Cn2nnc(C(F)(F)F)n2)nn1-c1ncccc1Br [Example 353] |  |  |  | ≥ 80% | ≥ 80% | ≥ 80% |  |
|  |  | Cc1cc(Cl)cc(C(=O)NCC2CC2)c1NC(=O)c1cc(Cn2nnc(C(F)F)n2)nn1-c1ncccc1Cl [Example 259] | 3.04 | ≥ 80% | ≥ 80% | ≥ 80% |  |  |  |
|  | 2.63 | Cc1cc(I)cc(C(N)=O)c1NC(=O)c1cc(Cn2nnnc2C(F)(F)F)nn1-c1ncccc1Br [Example 497] |  |  |  | ≥ 80% | ≥ 80% | ≥ 80% |  |
|  |  | Cc1cc(Cl)cc(C(=O)NCC#N)c1NC(=O)c1cc(Cn2nnc(C(F)(F)C(F)(F)C(F)(F)F)n2)nn1-c1ncccc1Cl [Example 8] |  | ≥ 80% | ≥ 80% | ≥ 80% |  |  | 3.65 |
|  | 2.66 | CCNC(=O)c1cc(C#N)cc(C)c1NC(=O)c1cc(Cn2nnnc2C(F)(F)F)nn1-c1ncccc1Br [Example 478] |  |  |  | ≥ 80% | ≥ 80% | ≥ 80% |  |
|  | 3.5 | Cc1cc(C#N)cc(C(=O)NC(C)C)c1NC(=O)c1cc(Cn2nnnc2C(F)(C(F)(F)F)C(F)(F)F)nn1-c1ncccc1Cl [Example 500] |  |  |  | ≥ 80% | ≥ 80% | ≥ 80% |  |
|  |  | N#CCNC(=O)c1cc(Cl)cc(Cl)c1NC(=O)c1cc(Cn2nnc(C(F)(F)C(F)(F)F)n2)nn1-c1ncccc1Cl [Example 158] | 3.32 | ≥ 80% | ≥ 80% | ≥ 80% |  |  |  |
|  |  | CSC[C@H](C)NC(=O)c1cc(Br)cc(C)c1NC(=O)c1cc(Cn2nnc(C(F)(F)F)n2)nn1-c1ncccc1Cl [Example 42] | 3.77 | ≥ 80% | ≥ 80% | ≥ 80% |  |  |  |
|  |  | COCCNC(=O)c1cc(C#N)cc(C)c1NC(=O)c1cc(Cn2nnc(C(F)(F)F)n2)nn1-c1ncccc1Cl [Example 92] | 2.73 | ≥ 80% | ≥ 80% | ≥ 80% |  |  |  |
|  |  | CNC(=O)c1cc(F)cc(C)c1NC(=O)c1cc(Cn2nnnc2C(F)(F)F)nn1-c1ncccc1Cl [Example 167] | 2.32 | ≥ 80% | ≥ 80% | ≥ 80% |  |  |  |
|  |  | CNC(=O)c1cc(Cl)cc(C)c1NC(=O)c1cc(Cn2nnnc2C(F)F)nn1-c1ncccc1Cl [Example 470] | 2.26 | ≥ 80% | ≥ 80% | ≥ 80% |  |  |  |
| 2.67 |  | Cc1cc(C#N)cc(C(N)=O)c1NC(=O)c1cc(Cn2nnc(C(F)(F)F)n2)nn1-c1ncccc1C(F)(F)F [Example 236] |  |  |  | ≥ 80% | ≥ 80% | ≥ 80% |  |
|  |  | CCOCCNC(=O)c1cc(C#N)cc(C)c1NC(=O)c1cc(Cn2nnc(C(F)(F)F)n2)nn1-c1ncccc1Cl [Example 211] | 2.99 | ≥ 80% | ≥ 80% | ≥ 80% |  |  |  |
|  |  | Cc1cc(C#N)cc(C(=O)NC(C)(C)C)c1NC(=O)c1cc(Cn2nnnc2C(F)F)nn1-c1ncccc1Cl [Example 464] | 2.59 | ≥ 80% | ≥ 80% | ≥ 80% |  |  |  |
|  |  | Cc1cc(F)cc(C(=O)NC2CC2)c1NC(=O)c1cc(Cn2nnc(C(F)(F)F)n2)nn1-c1ncccc1Cl [Example 27] | 2.87 | ≥ 80% | ≥ 80% | ≥ 80% |  |  |  |
|  |  | O=C(NC1CC1)c1cc(Cl)cc(Cl)c1NC(=O)c1cc(Cn2nnc(C(F)(C(F)(F)F)C(F)(F)F)n2)nn1-c1ncccc1Cl [Example 339] | 3.89 | ≥ 80% | ≥ 80% | ≥ 80% |  |  |  |
|  |  | Cc1cc(C#N)cc(C(=O)NC2CC2)c1NC(=O)c1cc(Cn2nnc(C(F)(F)C(F)(F)F)n2)nn1-c1ncccc1Cl [Example 214] | 3.26 | ≥ 80% | ≥ 80% | ≥ 80% |  |  |  |
